Measured values taken from US8729032B2, “Self-assembling peptide and peptide gel with high strength” (Menicon Co., Ltd., priority 2009, dated 2014).

Legend:
[1] = test system: mouse NIH3T3 cells; test: Cell culture in autoclaved peptide gel, Cell Counting Kit 8, cell growth rate; format: cell-based; conditions: Day 0 (Hour 2), Day 1, Day 3, Day 5; gel from 0.5 w/v % solution autoclaved at 121° C. for 20 minutes; FIG. 9
Protocol: The modified peptide 1 was dissolved in a sodium carbonate solution to prepare a 0.5 w/v % peptide aqueous solution (final concentration of sodium carbonate: 2.75 mM). The peptide aqueous solution was subjected to sterilization treatment at 121° C. for 20 minutes using an autoclave apparatus (product number “MLS 3020” manufactured by SANYO Electric Co., Ltd.) to afford a peptide gel. The gel and a cell suspension obtained by suspending mouse NIH3T3 cells in a DMEM medium were uniformly mixed with each other at a volume ratio of 2:1 (gel:cell suspension) by pipetting. […] Cell growth rates were measured using a trade name “Cell Counting Kit 8” (manufactured by DOJINDO LABORATORIES) on Day 0 (Hour 2), Day 1, Day 3, and Day 5 after the start of culture.
A specific procedure for the measurement of the cell growth rates described above is as described below. […] After the incubation, 100 μL of the medium permeating the gel in the Cell Culture Insert were transferred to a well of a 96-well plate, and the absorbance of the medium at 450 nm was measured using a plate reader. Cell growth rates in the respective culture days were determined with the absorbance of a sample on Day 0 after the start of culture defined as 100.

[2] = test system: mouse myoblasts (L6); test: Cell culture in peptide gel, DNA quantification (CyQUANT), cell growth rate; format: cell-based; conditions: rate immediately after start = 100%, peptide 0.4 w/v %, average of n=3
Excerpt: A cell suspension including mouse myoblasts (L6) at a cell concentration of 2.0×10^6 cells/ml and a peptide aqueous solution including the modified peptide 1 at 1.0 w/v % were mixed with each other at a volume ratio of 3:2 (cell suspension:peptide aqueous solution). The resultant mixture (cell concentration: 1.2×10^6 cells/ml, peptide concentration: 0.4 w/v %) was charged into a Cell Culture Insert (product number “353096” manufactured by BD Falcon) and left to stand still at room temperature for approximately 1 minute to form a peptide gel. The gel in the Cell Culture Insert was directly set in wells of a 24-well plate for tissue culture (product number “3820-024” manufactured by AGC TECHNO GLASS CO., LTD.) with 1 mL of a DMEM medium containing 10% calf serum. Next, cell culture was carried out in an incubator at 37° C. in the presence of 5% CO2. Medium exchange was carried out only once on Day 2 after the start of culture. The gel was collected on Days 1, 2, and 4 after the start of culture, and DNA quantification was carried out using a trade name “CyQUANT (registered trademark) Cell Proliferation Assay Kit*for cells in culture**1000 assays*” (product number “C7026” manufactured by Invitrogen), to thereby calculate cell growth rates. The cell growth rates on Days 1, 2, and 4 after the start of culture were 150%, 180%, and 310%, respectively, when the cell growth rate immediately after the start of culture was defined as 100%, that is, the number of cells increased in accordance with a lapse of days (an average of n=3 was used for the calculation results).

Substance | cell growth rates [1] | cell growth rate ([2]; Day 1 after start of culture) [%] | cell growth rate ([2]; Day 2 after start of culture) [%] | cell growth rate ([2]; Day 4 after start of culture) [%]
[CH3CO]-RLDLRLALRLDLR-[NH2] (Ac-RLDLRLALRLDLR-NH2) [modified peptide 1] | increased in accordance with a lapse of culture days | 150 | 180 | 310
[CH3CO]-RLDLRLLLRLDLR-[NH2] (Ac-RLDLRLLLRLDLR-NH2) [modified peptide 2] |  | 140 | 160 | 250
